Assay in all cases: growth of human tumour cells (NCI), 48 h
Assay [1] concerns MDA-MB-435.
The test system of assay [2] is KM12 colon.
Assay [3] concerns HOP-92 NSCLC.
For assay [4], the system named is SN12C renal.
Assay [5] deals with OVCAR-4 ovarian.
Assay [6] concerns HOP-62 NSCLC.
Assay [7] relates to 786-0 renal.
The test system of assay [8] is SK-MEL-28 melanoma.
In assay [9] the test system is NCI-H522 lung.
Assay [10] has as its system K-562 leukemia.

Where “and” joins values, the source holds several entries; their conditions need not be identical. Identical values can stand only once.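 Following 48 hours of exposure in 96-well plates, responses at five concentrations were used to interpolate endpoints linearly. The concentration for 50% growth inhibition is given as GI50. At the TGI there is no net growth.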

For `O=c1[nH]c(=O)n(C2OC(CO)C(O)C(O)C2O)cc1F` (centres undefined), the TGI in [1], in [2], in [3], in assay [4], in assay [5] and in [6] was more than 100 µM each time. Also, the TGI in assay [7], in [8], in [9] and in assay [10] was more than 100 µM each time.
For `CSc1nc2cc(S(=O)(=O)N3CCCCC3)ccc2s1`, the TGI in assay [1], in assay [2], in [3], in [4], in assay [5] and in assay [6] was more than 100 µM each time. Further, the TGI in assay [7], in assay [8], in assay [9] and in assay [10] was more than 100 µM throughout.
Turning to `CCCCCN(CCCCC)CC(O)c1ccc(Cl)c2ccccc12` (centres undefined), the GI50 was 6.43 µM in assay [1]; 6.11 µM in assay [2]; 0.974 µM in assay [3]; 10.6 µM in assay [4]; 12.2 µM in assay [5]; 13.1 µM in assay [6]. Moreover, the GI50 in assay [7] was 11.7 µM; in assay [8], 11.2 µM; in [9], 14.4 µM; in assay [10] it was 4.23 µM. Moreover, the TGI in assay [1] amounted to 45 µM; in assay [2] it was 25 µM; in assay [3] it was 14 µM; in [4], 24.6 µM; in assay [5], 72.5 µM; in assay [6], 26.5 µM. Further, the TGI was found to be 24.8 µM in assay [7], 24.4 µM in [8], 32.1 µM in [9] and 20.8 µM in assay [10].
For `O=C1OC(c2ccco2)=N/C1=C\c1cccc([N+](=O)[O-])c1`, the TGI in assay [1], in [2], in assay [3], in assay [4], in [5] and in assay [6] was more than 100 µM each time. Further, the TGI in assay [7], in [8], in assay [9] and in assay [10] was more than 100 µM throughout.
Turning to `COc1cc2c(c(OC)c1OC)C(=O)[C@@H]1c3ccc([N+](=O)[O-])cc3C(=O)N(CCCBr)[C@H]21`, the GI50 in assay [1] was 2.79 µM; in [2], 25.7 µM; in assay [3] it was 16.1 µM; in [4] it was 7.67 µM; in assay [5], 17.1 µM; in [6], 13.9 µM. Further, the GI50 is 12.5 µM in assay [7], 33.1 µM in assay [8], 4.18 µM in assay [9] and 30.6 µM in assay [10]. The TGI in assay [1] is 14.7 µM; in assay [2], more than 100 µM; in assay [3], 78.6 µM; in [4] it was 29.9 µM; in [5], 64.2 µM; in assay [6] it was 41.4 µM. Further, the TGI in [7] was 33.1 µM; in assay [8], more than 100 µM; in assay [9], 25.2 µM; in [10], more than 100 µM.
Regarding `Cc1ccc2c(c1)CN(C(=O)CCC(=O)OCc1ccccc1)c1ccc(C)cc1CN2C(=O)CCC(=O)OCc1ccccc1`, the TGI in assay [1], in assay [2], in assay [3], in assay [4], in [5] and in assay [6] was more than 100 µM throughout. In addition, the TGI in assay [7], in assay [8], in [9] and in [10] was more than 100 µM each time.
In the case of `O=C(/C=C\n1cnc(-c2cc(C(F)(F)F)cc(C(F)(F)F)c2)n1)NNc1cnccn1`, the GI50 in assay [1] was 0.0533 µM; in assay [2] it was 0.492 µM; in [3], 0.094 µM; in [4] it was 0.356 µM; in assay [5], 0.0364 µM; in [6], 0.289 µM. Moreover, the GI50 in assay [7] is 0.0781 µM; in assay [8], 0.0672 µM; in assay [9] it was 0.128 µM; in assay [10], 0.0594 µM. For the same compound, the TGI in [1] is 1.24 µM; in [2] it was 17 µM; in assay [3], 9.21 µM; in assay [4], 15.4 µM; in assay [5], 14 µM; in assay [6] it was 15.7 µM. The TGI in assay [7] is 13.9 µM; in [8] it was 11 µM; in assay [9], 6.42 µM; in assay [10], more than 38.3 µM.
On to `CCCCN1CSC(=S)N(Cc2ccccc2)C1`, for which the TGI in assay [1], in assay [2], in assay [3], in assay [4], in [5] and in [6] was more than 100 µM in each case. Besides, the TGI is more than 100 µM in assay [7], more than 100 µM in [8], more than 71.8 µM in [9] and more than 100 µM in assay [10].
Regarding `CON(C)C(=O)N1N=C(c2cc(F)ccc2F)SC1(CCCN)c1ccccc1` (centres undefined), the GI50 is less than 0.01 µM in assay [1]; 0.028 µM and < 0.01 µM in assay [2]; less than 0.01 µM in assay [4]; 4.27 µM and 3.37 µM in [5]; 0.0545 µM and < 0.01 µM in assay [6]; 0.0574 µM and < 0.01 µM in assay [7]. Moreover, the GI50 is 10.6 µM and 2.97 µM in assay [8]; 0.0201 µM and < 0.01 µM in assay [9]; less than 0.01 µM in [10]. Moreover, the TGI was less than 0.01 µM in [1]; 13.5 µM and 12.9 µM in assay [2]; 10.2 µM and 15 µM in assay [3]; 16 µM and 16.1 µM in assay [4]; 24.9 µM and 24.8 µM in assay [5]; 18.4 µM and 15.7 µM in [6]. Also, the TGI in assay [7] is 18.1 µM and 18.5 µM; in [8], 23.8 µM and 23.1 µM; in assay [9] it was 10.7 µM and 5.31 µM; in assay [10], 15.1 µM and 14.3 µM.

Values taken from PubChem BioAssay (NCI).
